Legend:
Type in all cases: cell-based
[1] = system: L540cy, HL; assay: In vitro assays - tubulysin free drugs, CellTiter-Glo growth inhibition; conditions: L540cy, 96 h
Protocol: (§1) In vitro assays. Cells cultured in log-phase growth were seeded for 24 h in 96-well plates containing 150 μL RPMI 1640 supplemented with 20% FBS. Serial dilutions of antibody-drug conjugates in cell culture media were prepared at 4× working concentrations; 50 μL of each dilution was added to the 96-well plates. Following addition of ADC, cells were incubated with test articles for 4 d at 37° C. After 96 h, growth inhibition was assessed by CellTiter-Glo® (Promega, Madison, WI) and luminescence was measured on a plate reader. The IC50 value, determined in triplicate, is defined here as the concentration that results in a 50% reduction in cell growth relative to untreated controls.
(§2) In vitro assays—tubulysin free drugs. Cells were treated for 96 hours with tubulysin ether analogs (40-42) or tubulysin M (7), then assessed for viability as described in the methods.
(§3) The tubulysin ester analogs (133-137) and unsaturated ether analogs (176-179) were tested in vitro for potency relative to tubulysin M (7), following a 96 hour exposure. As shown by IC50 values (nM) of Table 2, Tubulysin esters 133-136 performed comparably to tubulysin M, with similar potencies across of the cell lines.
(§4) A series of analogues of the ethyl ether tubulysin compound TubOEt (41) were synthesized on solid phase lanterns that maintain the ethyl ether substitution, while either varying the residue at the Ile position (203-215) or the Mep position (216-221). Following cleavage from the solid phase, the analogues were obtained in >85% purity and tested without further purification. The compounds were tested in vitro for potency relative to a sample of TubOEt synthesized in parallel on a lantern (41-lantern), following a 96 hour exposure, with IC5O values expressed in nM (Table 3). While in many cases an attenuation in activity was observed relative to 41-lantern, some well-tolerated substitutions were found. […] While this stereochemical preference is not observed when Ile is replaced with O-methyl threonine (207) or O-methyl allothreonine (206), bulkier substituents led to a greater differentiation. […] Replacement of the Mep residue was generally less-well tolerated.

[2] = system: HL60, AML; assay: as above; conditions: Homo sapiens, HL-60, 96 h
Protocol: as §1, §2, §3, §4

[3] = system: HL60/RV, MDR + AML; assay: as above; conditions: Homo sapiens, HL-60, 96 h
Protocol: as §1, §2, §3, §4

[4] = system: L428, MDR + HL; assay: as above; conditions: Homo sapiens, L-428, 96 h, free drug
Protocol: as §1, §2, §3

[5] = system: Karpas299, ALCL; assay: as above; conditions: Homo sapiens, KARPAS-299, 96 h, free drug
Protocol: as §1, §2, §3

[6] = system: Karpas299, L540cy, L428, HL60, HL60/RV cell lines; assay: In vitro assays - tubulysin free drugs, statements across the cell line panel; conditions: for potency relative to tubulysin M (7), in words: Table 2 cell lines, 96 hour exposure
Protocol: as §1, §2
The ethyl ether and tubulysin M maintained the highest level of potency in the context of MDR+L428 and HL60/RV cell lines.
as §3

[7] = system: HepG2, L540cy, Ramos, U266, HL60, HL60/RV cell lines; assay: In vitro assays - TubOEt analogues, statements across the cell line panel; conditions: Table 3 cell lines, 96 hour exposure
Protocol: as §1, §4

[8] = system: U266 MM; assay: In vitro assays - TubOEt analogues, CellTiter-Glo growth inhibition; conditions: Homo sapiens, U-266; Table 3; lantern-made analogues >85% purity, 96 hour exposure
Protocol: as §1, §4

[9] = system: Ramos, NHL; assay: as above; conditions: Homo sapiens, Table 3, lantern-made analogues >85% purity, 96 hour exposure
Protocol: as §1, §4

[10] = system: HepG2, HCC; assay: as above; conditions: Homo sapiens, Table 3, lantern-made analogues >85% purity, 96 hour exposure
Protocol: as §1, §4

[11] = Table 1 (examples), free drug, 96 hours
[12] = Table 2, free drug, 96 hour exposure
[13] = Table 3, lantern-made analogues >85% purity, 96 hour exposure

CCO[C@H](C[C@H](C(C)C)N(C)C(=O)[C@@H](NC(=O)[C@H]1CCCCN1C)[C@@H](C)CC)c1nc(C(=O)N[C@@H](Cc2ccccc2)C[C@H](C)C(=O)O)cs1 [Compound 41, (2S,4R)-4-(2-((1R,3R)-3-((2S,3S)—N,3-dimethyl-2-((R)-1-methylpiperidine-2-carboxamido)pentanamido)-1-ethoxy-4-methylpentyl)thiazole-4-carboxamido)-2-methyl-5-phenylpentanoic acid]
IC50 ([1]; Table 1 (examples), free drug): 0.05 nM | IC50 [2, 11]: 0.05 nM | IC50 [3, 11]: 5 nM | IC50 ([4]; Table 1 (examples), 96 hours): 0.14 nM | IC50 ([5]; Table 1 (examples), 96 hours): 0.05 nM | potency on each of the cell lines, in words ([6]; Table 1 (examples) cell lines, 96 hours): trended more potent

CC[C@H](C)[C@H](NC(=O)[C@H]1CCCCN1C)C(=O)N(C)[C@H](C[C@@H](OC(=O)CC(C)(C)C)c1nc(C(=O)N[C@@H](Cc2ccccc2)C[C@H](C)C(=O)O)cs1)C(C)C [Compound 137, (2S,4R)-4-(2-((1R,3R)-3-((2S,3S)—N,3-dimethyl-2-((R)-1-methylpiperidine-2-carboxamido)pentanamido)-1-((3,3-dimethylbutanoyl)oxy)-4-methylpentyl)thiazole-4-carboxamido)-2-methyl-5-phenylpentanoic acid]
IC50 [1, 12]: 0.7 nM | IC50 [2, 12]: 0.7 nM | IC50 [3, 12]: 47 nM | IC50 ([4]; Table 2, 96 hour exposure): 0.93 nM | IC50 ([5]; Table 2, 96 hour exposure): 0.18 nM | potency relative to tubulysin M (7), in words [6]: reduced potency

C=C(C)CO[C@H](C[C@H](C(C)C)N(C)C(=O)[C@@H](NC(=O)[C@H]1CCCCN1C)[C@@H](C)CC)c1nc(C(=O)N[C@@H](Cc2ccccc2)C[C@H](C)C(=O)O)cs1 [Compound 176, (2S,4R)-4-(2-((1R,3R)-3-((2S,3S)—N,3-dimethyl-2-((R)-1-methylpiperidine-2-carboxamido)pentanamido)-4-methyl-1-((2-methylallyl)oxy)pentyl)thiazole-4-carboxamido)-2-methyl-5-phenylpentanoic acid]
IC50 [1, 12]: 0.06 nM | IC50 [2, 12]: 0.07 nM | IC50 [3, 12]: 6 nM | IC50 ([4]; Table 2, 96 hour exposure): 0.12 nM | IC50 ([5]; Table 2, 96 hour exposure): 0.12 nM | potency relative to tubulysin M (7), in words [6]: comparable potency

C=CCO[C@H](C[C@H](C(C)C)N(C)C(=O)[C@@H](NC(=O)[C@H]1CCCCN1C)[C@@H](C)CC)c1nc(C(=O)N[C@@H](Cc2ccccc2)C[C@H](C)C(=O)O)cs1 [Compound 177, (2S,4R)-4-(2-((1R,3R)-1-(allyloxy)-3-((2S,3S)—N,3-dimethyl-2-((R)-1-methylpiperidine-2-carboxamido)pentanamido)-4-methylpentyl)thiazole-4-carboxamido)-2-methyl-5-phenylpentanoic acid]
IC50 [1, 12]: 0.12 nM | IC50 [2, 12]: 0.1 nM | IC50 [3, 12]: 9 nM | IC50 ([4]; Table 2, 96 hour exposure): 0.15 nM | IC50 ([5]; Table 2, 96 hour exposure): 0.02 nM | potency relative to tubulysin M (7), in words [6]: comparable potency

C#CCO[C@H](C[C@H](C(C)C)N(C)C(=O)[C@@H](NC(=O)[C@H]1CCCCN1C)[C@@H](C)CC)c1nc(C(=O)N[C@@H](Cc2ccccc2)C[C@H](C)C(=O)O)cs1 [Compound 178, (2S,4R)-4-(2-((1R,3R)-3-((2S,3S)—N,3-dimethyl-2-((R)-1-methylpiperidine-2-carboxamido)pentanamido)-4-methyl-1-(prop-2-yn-1-yloxy)pentyl)thiazole-4-carboxamido)-2-methyl-5-phenylpentanoic acid]
IC50 [1, 12]: 0.17 nM | IC50 [2, 12]: 0.2 nM | IC50 [3, 12]: 27 nM | IC50 ([4]; Table 2, 96 hour exposure): 0.41 nM | IC50 ([5]; Table 2, 96 hour exposure): 0.05 nM | potency relative to tubulysin M (7), in words [6]: attenuated in potency

CC[C@H](C)[C@H](NC(=O)[C@H]1CCCCN1C)C(=O)N(C)[C@H](C[C@@H](OCc1ccccc1)c1nc(C(=O)N[C@@H](Cc2ccccc2)C[C@H](C)C(=O)O)cs1)C(C)C [Compound 179, (2S,4R)-4-(2-((1R,3R)-1-(benzyloxy)-3-((2S,3S)—N,3-dimethyl-2-((R)-1-methylpiperidine-2-carboxamido)pentanamido)-4-methylpentyl)thiazole-4-carboxamido)-2-methyl-5-phenylpentanoic acid]
IC50 [1, 12]: 0.4 nM | IC50 [2, 12]: 0.4 nM | IC50 [3, 12]: 24 nM | IC50 ([4]; Table 2, 96 hour exposure): 0.57 nM | IC50 ([5]; Table 2, 96 hour exposure): 0.08 nM | potency relative to tubulysin M (7), in words [6]: attenuated in potency

CCO[C@H](C[C@H](C(C)C)N(C)C(=O)[C@@H](NC(=O)C1CCC(F)(F)CN1C)[C@@H](C)CC)c1nc(C(=O)N[C@@H](Cc2ccccc2)C[C@H](C)C(=O)O)cs1 (stereo partly drawn) [Compound 216, (2S,4R)-4-(2-((1R,3R)-3-((2S,3S)-2-(5,5-difluoro-1-methylpiperidine-2-carboxamido)-N,3-dimethylpentanamido)-1-ethoxy-4-methylpentyl)thiazole-4-carboxamido)-2-methyl-5-phenylpentanoic acid]
IC50 [1, 13]: 12 nM | IC50 [2, 13]: 61 nM | IC50 [3, 13]: > 1000 nM | potency / cytotoxicity of TubOEt analogues, in words [7]: decrease in the observed cytotoxicity | IC50 [8]: 9 nM | IC50 [9]: 10 nM | IC50 [10]: 58 nM

CCO[C@H](C[C@H](C(C)C)N(C)C(=O)[C@@H](NC(=O)C12CC(CCN1C)C2)[C@@H](C)CC)c1nc(C(=O)N[C@@H](Cc2ccccc2)C[C@H](C)C(=O)O)cs1 [Compound 217, (2S,4R)-4-(2-((1R,3R)-3-((2S,3S)—N,3-dimethyl-2-(2-methyl-2-azabicyclo[3.1.1]heptane-1-carboxamido)pentanamido)-1-ethoxy-4-methylpentyl)thiazole-4-carboxamido)-2-methyl-5-phenylpentanoic acid]
IC50 [1, 13]: 1 nM | IC50 [2, 13]: 4 nM | IC50 [3, 13]: 244 nM | potency / cytotoxicity of TubOEt analogues, in words [7]: most potent compounds obtained in this series | IC50 [8]: 0.4 nM | IC50 [9]: 0.4 nM | IC50 [10]: 2 nM

CCO[C@H](C[C@H](C(C)C)N(C)C(=O)[C@@H](NC(=O)[C@H]1[C@H]2CC[C@H](CC2)N1C)[C@@H](C)CC)c1nc(C(=O)N[C@@H](Cc2ccccc2)C[C@H](C)C(=O)O)cs1 [Compound 218]
IC50 [1, 13]: 5 nM | IC50 [2, 13]: 24 nM | IC50 [3, 13]: > 1000 nM | potency / cytotoxicity of TubOEt analogues, in words [7]: decrease in the observed cytotoxicity | IC50 [8]: 7 nM | IC50 [9]: 6 nM | IC50 [10]: 9 nM

CCO[C@H](C[C@H](C(C)C)N(C)C(=O)[C@@H](NC(=O)[C@H]1[C@@H]2CC[C@@H](C2)N1C)[C@@H](C)CC)c1nc(C(=O)N[C@@H](Cc2ccccc2)C[C@H](C)C(=O)O)cs1 [Compound 219, (2S,4R)-4-(2-((1R,3R)-3-((2S,3S)—N,3-dimethyl-2-((1S,3R,4R)-2-methyl-2-azabicyclo[2.2.1]heptane-3-carboxamido)pentanamido)-1-ethoxy-4-methylpentyl)-thiazole-4-carboxamido)-2-methyl-5-phenylpentanoic acid]
IC50 [1, 13]: 6 nM | IC50 [2, 13]: 25 nM | IC50 [3, 13]: > 1000 nM | potency / cytotoxicity of TubOEt analogues, in words [7]: decrease in the observed cytotoxicity | IC50 [8]: 8 nM | IC50 [9]: 8 nM | IC50 [10]: 19 nM

CCO[C@H](C[C@H](C(C)C)N(C)C(=O)[C@@H](NC(=O)[C@@]1(C)CCCN1C)[C@@H](C)CC)c1nc(C(=O)N[C@@H](Cc2ccccc2)C[C@H](C)C(=O)O)cs1 [Compound 221, (2S,4R)-4-(2-((1R,3R)-3-((2S,3S)-2-((R)-1,2-dimethylpyrrolidine-2-carboxamido)-N,3-dimethylpentanamido)-1-ethoxy-4-methylpentyl)thiazole-4-carboxamido)-2-methyl-5-phenylpentanoic acid]
IC50 [1, 13]: 1 nM | IC50 [2, 13]: 12 nM | IC50 [3, 13]: 522 nM | potency / cytotoxicity of TubOEt analogues, in words [7]: most potent compounds obtained in this series | IC50 [8]: 2 nM | IC50 [9]: 1 nM | IC50 [10]: 4 nM
